ChEMBL document CHEMBL1148993, “UV-mediated genotoxicity of furanoquinoline and of certain tryptophan-derived alkaloids” (J Nat Prod, 1983)
Where a name gives a salt, the structure may show the parent alone.

What was measured:
[1] = tested on: CHO; experiment: (§1) Genotoxicity in CHO cells assessed as mitotic inhibition at 0.62 ppm after 60 mins in dark followed by 5 W/m'2 UV irradiation for 30 mins; type: toxicity, cell-based, Cricetulus griseus; conditions: chinese hamster, cho, 0.5 h
[2] = tested on: CHO; experiment: Genotoxicity in CHO cells assessed as mitotic inhibition at 0.31 ppm after 60 mins in dark followed by 5 W/m'2 UV irradiation for 30 mins; type: toxicity, cell-based, Cricetulus griseus; conditions: chinese hamster, 0.5 h
[3] = tested on: CHO; experiment: Genotoxicity in CHO cells assessed as chromosomal aberrations at 0.07 ppm after 60 mins in dark followed by 5 W/m'2 UV irradiation for 30 mins; type: toxicity, cell-based, Cricetulus griseus; conditions: chinese hamster, 0.5 h
[4] = tested on: Saccharomyces cerevisiae; experiment: Phototoxicity against Saccharomyces cerevisiae at 100 ug/disk in dark; type: functional; conditions: light or radiation study, read-out: IZ
[5] = tested on: Staphylococcus aureus; experiment: Phototoxicity against Staphylococcus aureus at 100 ug/disk after irradiation with W/m'2 UV light; type: functional; conditions: light or radiation study, read-out: IZ
[6] = tested on: Candida albicans; experiment: Phototoxicity against Candida albicans at 100 ug/disk after irradiation with W/m'2 UV light; type: functional; conditions: light or radiation study, read-out: IZ
[7] = tested on: Candida albicans; experiment: Phototoxicity against Candida albicans at 100 ug/disk in dark; type: functional; conditions: light or radiation study, read-out: IZ
[8] = tested on: Pseudomonas aeruginosa; experiment: Phototoxicity against Pseudomonas aeruginosa at 100 ug/disk after irradiation with W/m'2 UV light; type: functional; conditions: light or radiation study, read-out: IZ
[9] = tested on: Staphylococcus aureus; experiment: Phototoxicity against Staphylococcus aureus at 100 ug/disk in dark; type: functional; conditions: light or radiation study, read-out: IZ
[10] = tested on: Pseudomonas fluorescens; experiment: Phototoxicity against Pseudomonas fluorescens at 100 ug/disk in dark; type: functional; conditions: light or radiation study, read-out: IZ
[11] = tested on: Saccharomyces cerevisiae; experiment: Phototoxicity against Saccharomyces cerevisiae at 100 ug/disk after irradiation with W/m'2 UV light; type: functional; conditions: light or radiation study, read-out: IZ
[12] = tested on: Bacillus subtilis; experiment: Phototoxicity against Bacillus subtilis at 100 ug/disk after irradiation with W/m'2 UV light; type: functional; conditions: light or radiation study, read-out: IZ
[13] = tested on: Enterococcus faecalis; experiment: Phototoxicity against Streptococcus faecalis at 100 ug/disk in dark; type: functional; conditions: light or radiation study, read-out: IZ
[14] = tested on: Pseudomonas aeruginosa; experiment: Phototoxicity against Pseudomonas aeruginosa at 100 ug/disk in dark; type: functional; conditions: light or radiation study, read-out: IZ
[15] = tested on: Enterococcus faecalis; experiment: Phototoxicity against Streptococcus faecalis at 100 ug/disk after irradiation with W/m'2 UV light; type: functional; conditions: light or radiation study, read-out: IZ
[16] = tested on: Pseudomonas fluorescens; experiment: Phototoxicity against Pseudomonas fluorescens at 100 ug/disk after irradiation with W/m'2 UV light; type: functional; conditions: light or radiation study, read-out: IZ
[17] = tested on: CHO; experiment: Genotoxicity against CHO cells; type: toxicity, cell-based, Cricetulus griseus; conditions: chinese hamster
[18] = tested on: CHO; experiment: Genotoxicity against CHO cells after UV irradiation; type: toxicity, cell-based, Cricetulus griseus; conditions: chinese hamster
[19] = tested on: Pseudomonas aeruginosa; experiment: Phototoxicity against Pseudomonas aeruginosa at 10 ug/disk in dark; type: functional; conditions: light or radiation study, read-out: IZ
[20] = tested on: CHO; experiment: Genotoxicity in CHO cells assessed as chromosomal aberrations at 62.5 ppm after 60 mins in dark followed by 5 W/m'2 UV irradiation for 30 mins; type: toxicity, cell-based, Cricetulus griseus; conditions: chinese hamster, 0.5 h
[21] = tested on: Staphylococcus aureus; experiment: Phototoxicity against Staphylococcus aureus at 10 ug/disk in dark; type: functional; conditions: light or radiation study, read-out: IZ
[22] = tested on: CHO; experiment: Genotoxicity in CHO cells assessed as chromosomal aberrations at 31.2 ppm after 60 mins in dark followed by 5 W/m'2 UV irradiation for 30 mins; type: toxicity, cell-based, Cricetulus griseus; conditions: chinese hamster, 0.5 h
[23] = tested on: Bacillus subtilis; experiment: Phototoxicity against Bacillus subtilis at 10 ug/disk in dark; type: functional; conditions: light or radiation study, read-out: IZ
[24] = tested on: Bacillus subtilis; experiment: Phototoxicity against Bacillus subtilis at 10 ug/disk after irradiation with W/m'2 UV light; type: functional; conditions: light or radiation study, read-out: IZ
[25] = tested on: Candida albicans; experiment: Phototoxicity against Candida albicans at 10 ug/disk after irradiation with W/m'2 UV light; type: functional; conditions: light or radiation study, read-out: IZ
[26] = tested on: CHO; experiment: Genotoxicity in CHO cells assessed as chromosomal aberrations at 15.6 ppm after 60 mins in dark followed by 5 W/m'2 UV irradiation for 30 mins; type: toxicity, cell-based, Cricetulus griseus; conditions: chinese hamster, 0.5 h
[27] = tested on: Pseudomonas fluorescens; experiment: Phototoxicity against Pseudomonas fluorescens at 10 ug/disk in dark; type: functional; conditions: light or radiation study, read-out: IZ
[28] = tested on: CHO; experiment: Genotoxicity in CHO cells assessed as chromosomal aberrations at 1.9 ppm after 60 mins in dark followed by 5 W/m'2 UV irradiation for 30 mins; type: toxicity, cell-based, Cricetulus griseus; conditions: chinese hamster, 0.5 h
[29] = tested on: Escherichia coli; experiment: Phototoxicity against Escherichia coli at 10 ug/disk in dark; type: functional; conditions: light or radiation study, read-out: IZ
[30] = tested on: Saccharomyces cerevisiae; experiment: Phototoxicity against Saccharomyces cerevisiae at 10 ug/disk after irradiation with W/m'2 UV light; type: functional; conditions: light or radiation study, read-out: IZ
[31] = tested on: Staphylococcus aureus; experiment: Phototoxicity against Staphylococcus aureus at 10 ug/disk after irradiation with W/m'2 UV light; type: functional; conditions: light or radiation study, read-out: IZ
[32] = tested on: Enterococcus faecalis; experiment: Phototoxicity against Streptococcus faecalis at 10 ug/disk in dark; type: functional; conditions: light or radiation study, read-out: IZ
[33] = tested on: Enterococcus faecalis; experiment: Phototoxicity against Streptococcus faecalis at 10 ug/disk after irradiation with W/m'2 UV light; type: functional; conditions: light or radiation study, read-out: IZ
[34] = tested on: CHO; experiment: Genotoxicity in CHO cells assessed as mitotic inhibition at 3.9 ppm after 60 mins in dark followed by 5 W/m'2 UV irradiation for 30 mins; type: toxicity, cell-based, Cricetulus griseus; conditions: chinese hamster, 0.5 h
[35] = tested on: CHO; experiment: Genotoxicity in CHO cells assessed as chromosomal aberrations at 125 ppm after 60 mins in dark followed by 5 W/m'2 UV irradiation for 30 mins; type: toxicity, cell-based, Cricetulus griseus; conditions: chinese hamster, 0.5 h
[36] = tested on: Candida albicans; experiment: Phototoxicity against Candida albicans at 10 ug/disk in dark; type: functional; conditions: light or radiation study, read-out: IZ
[37] = tested on: Saccharomyces cerevisiae; experiment: Phototoxicity against Saccharomyces cerevisiae at 10 ug/disk in dark; type: functional; conditions: light or radiation study, read-out: IZ
[38] = tested on: Pseudomonas fluorescens; experiment: Phototoxicity against Pseudomonas fluorescens at 10 ug/disk after irradiation with W/m'2 UV light; type: functional; conditions: light or radiation study, read-out: IZ
[39] = tested on: Pseudomonas aeruginosa; experiment: Phototoxicity against Pseudomonas aeruginosa at 10 ug/disk after irradiation with W/m'2 UV light; type: functional; conditions: light or radiation study, read-out: IZ
[40] = tested on: CHO; experiment: Genotoxicity in CHO cells assessed as chromosomal aberrations at 125 ppm after 90 mins in dark; type: toxicity, cell-based, Cricetulus griseus; conditions: chinese hamster, 1.5 h
[41] = tested on: CHO; experiment: Genotoxicity in CHO cells assessed as chromosomal aberrations at 7.8 ppm after 60 mins in dark followed by 5 W/m'2 UV irradiation for 30 mins; type: toxicity, cell-based, Cricetulus griseus; conditions: chinese hamster, 0.5 h
[42] = tested on: Escherichia coli; experiment: Phototoxicity against Escherichia coli at 10 ug/disk after irradiation with W/m'2 UV light; type: functional; conditions: light or radiation study, read-out: IZ
[43] = tested on: CHO; experiment: Genotoxicity in CHO cells assessed as mitotic inhibition at 1.25 ppm after 60 mins in dark followed by 5 W/m'2 UV irradiation for 30 mins; type: toxicity, cell-based, Cricetulus griseus; conditions: chinese hamster, 0.5 h
[44] = as §1; type: toxicity, cell-based, Cricetulus griseus; conditions: chinese hamster, CHO cells; read-out: Activity

## COc1ccc2[nH]c3c(c2c1)CCN=C3C
[1]
  Activity: Toxic
[2]
  Activity: Active
[3]
  Activity: 0%

## CN1[C@@H]2CC[C@H]1C[C@@H](OC(=O)C(CO)c1ccccc1)C2 (stereo not given in full) [ATROPINE SULFATE]
[4]
  zone of inhibition at 100 µg/disc: 0 mm
[5]
  zone of inhibition at 100 µg/disc: 0 mm
[6]
  zone of inhibition at 100 µg/disc: 0 mm
[7]
  zone of inhibition at 100 µg/disc: 0 mm
[8]
  zone of inhibition at 100 µg/disc: 0 mm
[9]
  zone of inhibition at 100 µg/disc: 0 mm
[10]
  zone of inhibition at 100 µg/disc: 0 mm
[11]
  zone of inhibition at 100 µg/disc: 0 mm
[12]
  zone of inhibition at 100 µg/disc: 0 mm
[13]
  zone of inhibition at 100 µg/disc: 0 mm
[14]
  zone of inhibition at 100 µg/disc: 0 mm
[15]
  zone of inhibition at 100 µg/disc: 0 mm
[16]
  zone of inhibition at 100 µg/disc: 0 mm

## CN1[C@@H]2CC[C@H]1C[C@@H](OC(=O)C(CO)c1ccccc1)C2 (stereo not given in full) [ATROPINE]
[17]
  Activity: Not Active
[18]
  Activity: Not Active

## O=c1ccc2nccc3c4ccccc4n1c23 [CANTHIN-6-ONE]
[19]
  zone of inhibition at 10 µg/disc: 0 mm
[20]
  Activity: Toxic
[21]
  zone of inhibition at 10 µg/disc: 0 mm
[22]
  Activity: Toxic
[23]
  zone of inhibition at 10 µg/disc: 16 mm
[24]
  zone of inhibition at 10 µg/disc: 8.6 mm
[25]
  zone of inhibition at 10 µg/disc: 13 mm
[26]
  Activity: Toxic
[27]
  zone of inhibition at 10 µg/disc: 0 mm
[28]
  Activity: 22.2%
[29]
  zone of inhibition at 10 µg/disc: 0 mm
[30]
  zone of inhibition at 10 µg/disc: 13 mm
[31]
  zone of inhibition at 10 µg/disc: 10 mm
[32]
  zone of inhibition at 10 µg/disc: 0 mm
[33]
  zone of inhibition at 10 µg/disc: 0 mm
[34]
  Activity: Active
[35]
  Activity: Toxic
[36]
  zone of inhibition at 10 µg/disc: 9 mm
[37]
  zone of inhibition at 10 µg/disc: 9 mm
[38]
  zone of inhibition at 10 µg/disc: 0 mm
[39]
  zone of inhibition at 10 µg/disc: 0 mm
[40]
  Activity: 0%
[41]
  Activity: Toxic
[42]
  zone of inhibition at 10 µg/disc: 7 mm

## COc1ccc2c3c([nH]c2c1)C(C)=NCC3 [HARMALINE]
[43]
  Activity: Active
[1]
  Activity: Active

## Cc1nccc2c1[nH]c1ccccc12 [HARMANE HYDROCHLORIDE]
[44]
  inhibition at 0.5 h, 0.62 ppm: 0%
